Legend:
[1] = cited from earlier work
[2] = cited from earlier work; remark: listed apart in the source
[3] = Oral absorption (general statements); format: in vivo; details: orally administered
[4] = well known in the art; cited from earlier work

Compound | dipivefrin converted into epinephrine ([1]; 0.5% solution instilled in human eyes, within 30 minutes) | ocular penetration relative to epinephrine (times greater) ([1]; human eyes) | amount entering the rabbit eye relative to epinephrine [2] | absorption after oral administration [3] | absorption when taken orally [4]
CNCC(O)c1ccc(OC(=O)C(C)(C)C)c(OC(=O)C(C)(C)C)c1 (centres unmarked) [Dipivefrin, 4-(1-hydroxy-2-(methylamino)ethyl)-1,2-phenylene bis(2,2-dimethylpropanoate)] | 80% | 17 times | eight to ten times more | well absorbed | 
CNC[C@H](O)c1ccc(O)c(O)c1 [epinephrine] |  |  |  |  | not absorbed

Reference: patent US11213484B2, “Dipivefrin orally disintegrating tablet formulations” (priority 2019, dated 2022)
